Experiments:
Assay type in all cases: biochemical, Trichoderma atroviride
[1] = tested on: FgenL mRNA construct; test: Size Exclusion Base Hydrolysis Degradation Assay, FgenL; details: 25 mM amino acid; for T0 R1 peak area at 250 nm: FgenL 0.1 mg/mL, 50 mM CAPS, T=0, replicate 1; for T2 Avg, peak area as percentage of T=0 / T2 R1 peak area at 250 nm / T10 Avg, peak area as percentage of T=0 / T10 R1 peak area at 250 nm / T24 Avg, peak area as percentage of T=0 / T24 R1 peak area at 250 nm / T0 Avg, peak area as percentage of T=0: FgenL; for T2 Avg, peak area as percentage of T=0 / T2 R1 peak area at 250 nm / T10 Avg, peak area as percentage of T=0 / T10 R1 peak area at 250 nm / T24 Avg, peak area as percentage of T=0 / T24 R1 peak area at 250 nm: 50 mM CAPS pH 11, room temperature; for T2 Avg, peak area as percentage of T=0 / T2 R1 peak area at 250 nm: 2 hrs; for T2 R1 peak area at 250 nm / T10 R1 peak area at 250 nm / T24 R1 peak area at 250 nm: replicate 1; for T10 Avg, peak area as percentage of T=0 / T10 R1 peak area at 250 nm: 10 hrs; for T24 Avg, peak area as percentage of T=0 / T24 R1 peak area at 250 nm: 24 hrs; for T0 Avg, peak area as percentage of T=0: T=0 (reference)
Method: Basic assay procedure: RNA samples were diluted to 1.0 mg/mL in DNAase/RNAase free water. Amino acids were dissolved in water to a stock solution of 100 mM and a solution of 500 mM CAPS pH 11 was used. The two mRNA constructs tested were FgenL and Chi18. Each individual sample volume was 50 μL. To determine the amount of 1 M NaOH needed to adjust the final pH to 11.0 after the addition of all sample components, the sample volume was increased 100 fold (5 mL), the volume of 1 M NaOH recorded and this value was translated back down to the 50 μL sample volume.
The mRNA and amino acid were allowed to incubate for one hour prior to the addition of CAPS pH 11. All steps of the assay were conducted at room temperature.
Degradation reaction: After the CAPS addition, the samples were injected onto the Waters H-Class UPLC system to record the first timepoint, T=O. This resulting chromatogram was processed by integrating the area of absorbance at 250 nm for the mRNA construct. Immediately following this timepoint, the pH was adjusted to 11. Subsequent time points (2 hrs, 10 hrs, and 24 hrs) recorded the Absorbance Units (peak area) at 250 nm as a percentage of the peak area determined at T=O. Integration of the chromatogram for subsequent timepoints was conducted by analyzing the area of absorbance at 250 nm contained within the same time window in which the peak eluted in T=0 for the 100% intact mRNA.

[2] = tested on: FgenL model RNA; test: TapeStation Assay, FgenL model RNA; parameters: Conc. FgenL#1 / Conc. FgenL#2: unit not given here; details: for % Control N = 1 / % Control N = 2 / % Control Average: FgenL RNA, 20 mM amino acids, 50 mM CAPS pH 11, 50° C. 15 min; for % Control N = 1 / % Control N = 2: vs Time 0; for % Control Average: vs Time 0, Avg N=2; for Conc. FgenL#1 / Conc. FgenL#2: intact FgenL RNA after 15 min at 50° C.; for Conc. FgenL#1: 20 mM amino acids in 50 mM CAPS pH 11, run #1; for Conc. FgenL#2: 20 mM amino acids in 50 mM CAPS pH 11, run #2
Method: (§1) These assays were performed with amino acids and compared to a no-degradation baseline control to gauge degree of protection imparted by the amino acid. Multiple functional assay approaches were used where differing endpoints were measured including a droplet digital PCR (ddPCR) assay where intact RNA sequence was quantitated, a size exclusion base hydrolysis degradation assay that used a size exclusion column to determine the degree of degradation occurring to an mRNA construct, and finally, a TapeStation assay that utilizes capillary electrophoresis and optical detection to measure intact RNA. […] Affinity selection by mass spectrometry (ASMS), native electrospray ionization mass spectrometry (nESI-MS) and nuclear magnetic resonance (NMR) may be used as several complementary approaches to ascertain compound binding to RNA. The latter techniques utilize MS to measure mass of bound compound alone (ASMS), or mass of RNA and bound compound (nESI-MS). The nESI-MS and NMR studies may be conducted to provide direct analytical quantification of resulting complex via measurement of mass (nESI-MS) or chemical shifts (NMR). The ASMS experiment is conducted to determine saturation binding of the compound to RNA where resulting apparent binding constants (KD,App) may be generated. Further descriptions of the functional and binding assays are provided in the section below.
(§2) In principle, samples are loaded to the instrument where electrophoresis separates component RNA's on the basis of mass, and subsequently analyzes these optically as they travel through the capillary.
(§3) RNA samples were diluted to the appropriate concentration to fall within the linear range of detection for the RNA ScreenTape Assay. Model Chi18 or FgenL RNAs were diluted to 50 ng/μL in 50 mM CAPS buffer pH 11. Amino acid stocks were made up in 50 mM CAPS pH 11 and re-adjusted to >pH 11 after solubilization. […] The samples were aliquoted to PCR tubes for each time point (Time 0 or 15 minutes). Degradation reaction: Samples were incubated at 50° C. for 0 to 15 minutes in a thermocycler, removed at the appropriate time point and placed on ice. Time 0 samples remained on ice.

[3] = tested on: Chi18 model RNA; test: TapeStation Assay, Chi18 model RNA; parameters: Conc. chi18#1 / Conc. chi18#2: unit not given here; details: for % Control N = 1 / % Control N = 2 / % Control Avg.: Chi18 RNA, 20 mM amino acids, 50 mM CAPS pH 11, 50° C. 15 min; for % Control N = 1 / % Control N = 2: vs Time 0; for % Control Avg.: vs Time 0, Avg N=2; for Conc. chi18#1 / Conc. chi18#2: intact Chi18 RNA after 15 min at 50° C.; for Conc. chi18#1: 20 mM amino acids in 50 mM CAPS pH 11, run #1; for Conc. chi18#2: 20 mM amino acids in 50 mM CAPS pH 11, run #2
Method: as §1, §2, §3

[4] = molecular target: Chi18 model RNA; test: Droplet Digital Polymerase Chain Reaction (ddPCR) Assay, Chi18; details: percent protection, pH 11.0, 30° C., 16 hours, n = 2
Method: (§4) The ddPCR assays measure RNA integrity by converting intact RNA to cDNA by reverse transcription, then performing digital PCR in thousands of nanoliter-sized droplets for each sample. PCR is performed within each droplet, which allows for more sensitive detection of subtle changes in RNA concentration compared to traditional PCR or qPCR. Additionally, primers/probes specific to the 5′ end of the RNA/cDNA transcript(s) are used to assess fragment integrity—e.g. degraded RNA will have fewer 5′ positive droplets. The BioRad QX200 Droplet Digital PCR System was used for the ddPCR workflow.
(§5) Basic assay procedure: RNA samples (Chi18 or FgenL fragments) were diluted to 25 fg/μL or 10 fg/μL, respectively, in 50 mM […] buffer pH 11.0. Amino acid stocks were made up in 50 mM CAPS buffer, pH 11.0 and subsequently re-adjusted to pH 11.0, post solubilization. Amino acid stocks were tested in a dose-response format to determine EC50. An amino acid dilution plate containing a ˜300 mM (or appropriate) top-concentration of amino acid in 50 mM CAPS buffer was serially (half-log) diluted for 10 times. 0.6 μL of this compound dilution plate was spotted into a 96-well PCR plate (Thermo). Sample RNAs were added (6 μL) and incubated with test amino acid as described below.
(§6) Degradation reaction: Treated RNAs were incubated for 16 hours at 30° C. for Chi18 samples or 44° C. for FgenL samples. Upon completion of the degradation reaction, cDNA was made from the intact RNA by Reverse Transcription and ddPCR run for each sample (96 well plates). Positive 5′ droplet values were divided by the total accepted droplet values for each sample and a ratio value generated for each sample.
(§7) EC50 was determined by using a four parameter logistic equation: Y=A+((B−A)/(1+(C/X)D)); where Y is percent protection, X is compound concentration, A and B are minimum and maximum asymptotes, respectively, C is EC50, and D is Hill slope.

[5] = tested on: FgenL model RNA; details: percent protection, pH 11.0, 44° C., 16 hours, n = 2
Method: as §4, §5, §6, §7

| Structure (SMILES) | T0 R1 peak area at 250 nm [1] | T2 Avg, peak area as percentage of T=0 [1] [%] | T2 R1 peak area at 250 nm [1] | T10 Avg, peak area as percentage of T=0 [1] [%] | T10 R1 peak area at 250 nm [1] | T24 Avg, peak area as percentage of T=0 [1] [%] | T24 R1 peak area at 250 nm [1] | T0 Avg, peak area as percentage of T=0 [1] [%] | % Control N = 1 [2] [%] | % Control N = 2 [2] [%] | % Control Average [2] [%] | Conc. FgenL#1 [2] | Conc. FgenL#2 [2] | % Control N = 1 [3] [%] | % Control N = 2 [3] [%] | % Control Avg. [3] [%] | Conc. chi18#1 [3] | Conc. chi18#2 [3] | EC50 [4] [mM] | EC50 [5] [mM] |
| --- | --- | --- | --- | --- | --- | --- | --- | --- | --- | --- | --- | --- | --- | --- | --- | --- | --- | --- | --- | --- |
| NC(=O)C[C@H](N)C(=O)O [Asparagine] | 14320 | 35.9 | 6791 | 0.0 | 0 | 0.0 | 0 | 100.0 | 21.9 | 15.0 | 18.4 | 7.56 | 5.19 | 21.0 | 26.7 | 23.8 | 11.2 | 14.1 | 4.9 | – |
| N[C@@H](Cc1c[nH]cn1)C(=O)O [Histidine] | 18949 | 34.5 | 8325 | 0.0 | 0 | 0.0 | 0 | 100.0 | 4.2 | 3.7 | 4.0 | 1.46 | 1.3 | 3.0 | 3.2 | 3.1 | 1.58 | 1.68 | > 30 | > 30 |
| CSCC[C@H](N)C(=O)O [Methionine] | 15213 | 24.2 | 3658 | 0.0 | 0 | 0.0 | 0 | 100.0 | 35.4 | 32.6 | 34.0 | 12.2 | 11.3 | 49.7 | 49.7 | 49.7 | 26.5 | – | > 30 | > 30 |
| C[C@@H](O)[C@H](N)C(=O)O [Threonine] | 17711 | 47.3 | 8436 | 2.6 | 904 | 0.0 | 0 | 100.0 | 49.3 | 34.6 | 41.9 | 17 | 12 | 51.4 | 40.8 | 46.1 | 27.4 | 21.6 | > 30 | > 30 |
| N[C@@H](CO)C(=O)O [Serine] | 17044 | 46.6 | 7928 | 11.3 | 0 | 0.0 | 0 | 100.0 | 37.7 | 31.4 | 34.5 | 13 | 10.9 | 42.2 | 42.2 | 42.2 | 22.5 | – | > 30 | > 30 |
| N[C@@H](CC(=O)O)C(=O)O [Aspartic acid] | 17497 | 0.0 | 0 | 0.0 | 0 | 0.0 | 0 | 100.0 | 107.0 | 91.1 | 99.0 | 36.9 | 31.6 | 52.5 | 53.5 | 53.0 | 28 | 28.3 | 6.1 | – |

— patent publication US20240122865A1, “Methods of Protecting RNA” (Pfizer Inc., priority 2021, published 2024)
